# Experimental data reported in patent publication US6476189B1, “Antibacterial peptides and antibacterial agents containing such peptides as an effective ingredient” (National Institute of Agrobiological Sciences, priority 1998, dated 2002).
# Residues, ends and D or L forms follow the SMILES beside them.
# What was measured:
# Assay type in all cases: cell-based
# Pseudomonas aeruginosa = system: Pseudomonas aeruginosa
# Description: (§1) Minimum Inhibitory Concentration (MIC) of these antibacterial peptides (1) to (5) against Staphylococcus aureus, methicillin resistant Staphylococcus aureus (MRSA), Escherichia coli and Pseudomonas aeruginosa was determined.
# Staphylococcus aureus = system: Staphylococcus aureus
# Description: as §1
# [1] = system: methicillin resistant Staphylococcus aureus (MRSA)
# Description: as §1
MIC P. aeruginosa (Pseudomonas aeruginosa),MIC S. aureus (Staphylococcus aureus),MIC MRSA [1],Compound
>15 µg/mL,5 µg/mL,,"CC[C@H](C)[C@H](NC(=O)[C@H](C)NC(=O)[C@H](CC(C)C)NC(=O)[C@H](CCCNC(=N)N)NC(=O)[C@H](CC(C)C)NC(=O)[C@H](C)N)C(=O)N[C@@H](CCCNC(=N)N)C(=O)N[C@@H](CCCCN)C(=O)N[C@@H](CCCNC(=N)N)C(N)=O [present peptide (1), Ala-Leu-Arg-Leu-Ala-Ile-Arg-Lys-Arg-NH2] (H-ALRLAIRKR-NH2; N-terminus assumed)"
4 µg/mL,2 µg/mL,30 µg/mL,"CC[C@H](C)[C@H](NC(=O)[C@H](C)NC(=O)[C@H](CC(C)C)NC(=O)[C@H](Cc1ccc(O)cc1)NC(=O)[C@H](CC(C)C)NC(=O)[C@H](C)N)C(=O)N[C@@H](CCCNC(=N)N)C(=O)N[C@@H](CCCCN)C(=O)N[C@@H](CCCNC(=N)N)C(N)=O [present peptide (4), Ala-Leu-Tyr-Leu-Ala-Ile-Arg-Lys-Arg-NH2]"

# Second part, the compound before the results:
Compound,MIC P. aeruginosa (Pseudomonas aeruginosa),MIC S. aureus (Staphylococcus aureus),MIC MRSA [1]
"CC[C@H](C)[C@H](NC(=O)[C@H](C)NC(=O)[C@H](CC(C)C)NC(=O)[C@H](Cc1c[nH]c2ccccc12)NC(=O)[C@H](CC(C)C)NC(=O)[C@H](C)N)C(=O)N[C@@H](CCCNC(=N)N)C(=O)N[C@@H](CCCCN)C(=O)N[C@@H](CCCNC(=N)N)C(N)=O [present peptide (5), Ala-Leu-Trp-Leu-Ala-Ile-Arg-Lys-Arg-NH2] (H-ALWLAIRKR-NH2; N-terminus assumed)",10 µg/mL,4 µg/mL,40 µg/mL
"CC[C@H](C)[C@H](NC(=O)[C@H](C)NC(=O)[C@H](CC(C)C)NC(=O)[C@H](CC(C)C)NC(=O)[C@H](CC(C)C)NC(=O)[C@H](C)N)C(=O)N[C@@H](CCCNC(=N)N)C(=O)N[C@@H](CCCCN)C(=O)N[C@@H](CCCNC(=N)N)C(N)=O [present peptide (2), Ala-Leu-Leu-Leu-Ala-Ile-Arg-Lys-Arg-NH2] (H-ALLLAIRKR-NH2; N-terminus assumed)",4 µg/mL,4 µg/mL,40 µg/mL
"CC[C@H](C)[C@H](NC(=O)[C@H](C)NC(=O)[C@H](CC(C)C)NC(=O)[C@H](CC(C)C)NC(=O)[C@H](Cc1c[nH]c2ccccc12)NC(=O)[C@H](C)N)C(=O)N[C@@H](CCCNC(=N)N)C(=O)N[C@@H](CCCCN)C(=O)N[C@@H](CCCNC(=N)N)C(N)=O [present peptide (3), Ala-Trp-Leu-Leu-Ala-Ile-Arg-Lys-Arg-NH2] (H-AWLLAIRKR-NH2; N-terminus assumed)",4 µg/mL,3 µg/mL,25 µg/mL
